The target in this experiment is T1, porcine tubulin (Sus scrofa, UniProt P02554).
T1 construct: purchased Cytoskeleton, Inc. BK011P
Kind of experiment: Tubulin polymerization assay (fluorescent reporter). The experiment is classed as biochemical. The conditions noted are these: compound 5 μM, porcine tubulin 20 μM, relative to DMSO. Here is the method:
Tubulin polymerization was evaluated by monitoring the incorporation of a fluorescent reporter into MTs during polymerization. The tubulin polymerization assay kit (Cytoskeleton, Inc. BK011P; Denver, CO, USA) was used according to the manufacturer’s instructions. Briefly, the tubulin reaction mix was kept on ice until immediately prior to use.
(A,B) Representative tubulin polymerization plots and data quantification. […] (C) Immunofluorescence staining of β-tubulin in U87 glioblastoma cells. […] Images were captured using an Operetta confocal microscope at 40× magnification. Scale bar, 10 μm. […] Data was collected with a BD FACS Canto II Flow Cytometer and analyzed using the BD FACSDiva software. (E) The percentage of cells in G1, S, and G2/M phases from the histograms in (D). Data are plotted as mean ± SD from at least three independent experiments. Analysis between groups in (B) was performed using a one-way ANOVA with Tukey’s multiple comparisons test.

T1 sequence (P02554 whole entry): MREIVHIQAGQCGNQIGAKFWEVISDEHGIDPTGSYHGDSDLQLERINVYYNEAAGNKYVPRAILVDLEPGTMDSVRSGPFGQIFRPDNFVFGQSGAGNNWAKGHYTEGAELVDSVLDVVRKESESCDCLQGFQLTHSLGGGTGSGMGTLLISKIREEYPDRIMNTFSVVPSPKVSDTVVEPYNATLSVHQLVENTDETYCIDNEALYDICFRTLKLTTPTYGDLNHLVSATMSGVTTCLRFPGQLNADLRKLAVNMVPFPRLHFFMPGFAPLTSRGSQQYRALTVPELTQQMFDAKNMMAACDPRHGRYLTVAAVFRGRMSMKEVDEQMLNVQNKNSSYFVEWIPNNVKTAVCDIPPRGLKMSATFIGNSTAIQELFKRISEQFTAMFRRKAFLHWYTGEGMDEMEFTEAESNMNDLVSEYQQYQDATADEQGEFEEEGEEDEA
T1 sequence (P02550 whole entry partner): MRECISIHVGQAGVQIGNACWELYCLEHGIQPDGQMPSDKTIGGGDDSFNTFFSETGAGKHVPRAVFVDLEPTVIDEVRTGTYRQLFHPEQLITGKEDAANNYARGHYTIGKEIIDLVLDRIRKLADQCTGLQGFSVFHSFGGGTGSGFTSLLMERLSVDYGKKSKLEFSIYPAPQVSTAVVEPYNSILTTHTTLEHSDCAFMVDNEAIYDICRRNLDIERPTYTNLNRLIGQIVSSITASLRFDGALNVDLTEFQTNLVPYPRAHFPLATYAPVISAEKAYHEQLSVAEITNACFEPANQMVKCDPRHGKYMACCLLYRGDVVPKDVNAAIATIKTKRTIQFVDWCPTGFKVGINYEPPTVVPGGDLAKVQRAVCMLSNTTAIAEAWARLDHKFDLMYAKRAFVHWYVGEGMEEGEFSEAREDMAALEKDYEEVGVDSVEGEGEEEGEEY

With `CO[C@H]1C[C@@H](C(=O)NC(=O)Nc2ccc(Oc3ccc(Cl)cn3)c(C)c2)C1` [RGN3067], the “reduction in tubulin polymerization (AUC)” value was 49%.

These data come from paper PMC10887108, “Novel Brain-Penetrant, Small-Molecule Tubulin Destabilizers for the Treatment of Glioblastoma” (Biomedicines, 2024).
